Reference: publication PMC9618446 (Biomedicine & Pharmacotherapy, 2022)

How the values were obtained:
[1] = system: SARS-CoV-2 (isolate Wuhan-Hu-1); assay: microbe, parasite or virus in culture; type: cell-based; details: for IC50: Severe acute respiratory syndrome coronavirus 2, Vero C1008, 24 h, read-out: IC50 (half-maximal inhibitory concentration), anti-SARS-CoV-2 activity
in vitro [2] = details: African green monkey
in vitro [3] = details: human
CXCL-10 = type: cell-based, human
IL-1β = type: cell-based, human
SARS-CoV-2 S PsV = assay: microbe, parasite or virus in culture; type: cell-based
[4] = system: SARS-CoV-2 S protein-mediated cell-cell fusion; type: cell-based
IL-6 = type: cell-based, human
3 C-like protease = details: cited from earlier work
papain-like protease = details: cited from earlier work

Row | SMILES | SI: selectivity index as CC50/IC50 [1] | IC50 [1] [µM] | CC50 (in vitro [2]) [µM] | CC50 (in vitro [3]) [µM] | release of CXCL-10 from THP-1 cells (CXCL-10) | release of IL-1β from THP-1 cells (IL-1β) | further results
1 | COc1ccc([C@@H]2CC(=O)c3c(O)cc(O)cc3O2)cc1O [HE, Hesperetin] | > 4.00 | 50 ± 0.66 | > 200 | > 400 | – | – | –
2 | O=C(/C=C/c1ccc(O)cc1)c1ccc(O)cc1O [IS, Isoliquiritigenin] | – | – | – | – | inhibited the release of both CXCL-10 and IL-1β | inhibited the release of both CXCL-10 and IL-1β | –
3 | O=c1cc(-c2ccc(O)c(O)c2)oc2cc(O)cc(O)c12 [LU, Luteolin] | – | – | – | – | inhibited the release of CXCL-10 | – | –
4 | O=C1C[C@@H](c2ccc(O)cc2)Oc2cc(O)cc(O)c21 [NA, Naringenin] | – | – | – | – | inhibited the release of CXCL-10 | – | –
5 | COc1c(O)cc2oc(-c3ccccc3)cc(=O)c2c1O [OA, Oroxylin A] | > 6.37 | 31.39 ± 0.07 | > 200 | > 400 | inhibited the release of both CXCL-10 and IL-1β | inhibited the release of both CXCL-10 and IL-1β | IC50 (SARS-CoV-2 S PsV; Severe acute respiratory syndrome coronavirus 2, read-out: IC50 against SARS-CoV-2 S PsV infection): 15 ± 1.46 µM; SARS-CoV-2 S protein-mediated cell-cell fusion (syncytium formation) [4]: significantly inhibited
6 | Oc1ccc(/C=C/c2cc(O)cc(O)c2)cc1 [RE, Resveratrol] | – | – | – | – | – | inhibited the release of IL-1β | –
7 | O=C(O)[C@H]1O[C@@H](Oc2cc3oc(-c4ccc(O)cc4)cc(=O)c3c(O)c2O)[C@H](O)[C@@H](O)[C@@H]1O [SC, Scutellarin] | > 8.90 | 22.47 ± 0.19 | > 200 | > 400 | – | – | inhibitory activity against entry of SARS-CoV-2 S PsV (in words) (SARS-CoV-2 S PsV): inhibits neither the entry of SARS-CoV-2 S PsV; release of IL-6 from THP-1 cells (IL-6): except SC; inhibition of 3 C-like protease activity (3 C-like protease): nor the activity of 3 C-like protease and papain-like protease; inhibition of papain-like protease activity (papain-like protease): nor the activity of 3 C-like protease and papain-like protease
8 | COc1c(O)cc2occ(-c3ccc(O)cc3)c(=O)c2c1O [TE, Tectorigenin] | – | – | – | – | inhibited the release of both CXCL-10 and IL-1β | inhibited the release of both CXCL-10 and IL-1β | inhibition of SARS-CoV-2 infection [1]: approximately 48.31%
